# From patent publication US20080206311A1, “Sucrase Activity Inhibitor, Glucoamylase Activity Inhibitor and Food and Feed Containing the Same” (MITSUI SUGAR CO., LTD., priority 2005, published 2008)
# Entries after “also recorded” stand apart in the source; their conditions may differ.
# Legend:
# sucrase = molecular target: T1, sucrase (Rattus norvegicus, UniProt P23739); experiment: Sucrase activity inhibition with rat small-intestinal enzyme liquid, substrate sucrose; type: biochemical
# T1 construct: This liquid contained a mixture of enzymes present in small intestine, such as sucrose, glucoamylase, maltase, and isomaltase; tissue Sigma Corporation; host or cells: rat small intestine (acetone powder), buffer extract, unpurified
# Experimental: (§1) Palatinose (trade name: Palatinose IC, ex Shin Mitsui Sugar Co., Ltd.) (test sample) was used as a sample for investigating each enzyme activity inhibitory effect. Maltose and sucrose were used as substrates for maltase and sucrose, respectively. The test sample and the substrates were dissolved in 0.1 M phosphate buffer (pH 6.8) at the concentration shown in Table 1 below to prepare test solutions (Solutions 4 and 5). Also, the test sample or the substrates were dissolved in 0.1 M phosphate buffer (pH 6.8), respectively to at the concentration shown in Table 1 below to prepare control solutions (Solution 1 for the test sample and Solutions 2 and 3 for the substrates).
# (§2) Two grams of rat small-intestinal acetone powder (ex Sigma Corporation) were dissolved in 20 ml of 0.1 M phosphate buffer (pH 6.8), left standing one day at 5° C., and subsequently subjected to centrifugal separation (8000 rpm×15 min.). The supernatant was filtered through a 0.8 μm membrane filter to obtain a small-intestinal enzyme liquid. This liquid contained a mixture of enzymes present in small intestine, such as sucrose, glucoamylase, maltase, and isomaltase.
# (§3) Each 0.25 ml of the small-intestinal enzyme liquid was added to each 5 ml of Solutions 1 through 5 and placed in a water bath at 37° C. to allow them to react for 60 min. while shaken at 60 strokes/min. After the reaction, they were heated in a boiling water bath for 3 min. for inactivation of the enzymes.
# (§4) The glucose concentration in each solution after the reaction was measured using the F-kit Glucose (ex Roche). A liberated glucose concentration (g/l) was calculated by subtracting the blank value (0.1 M phosphate buffer alone) and the concentration of glucose originally contained in the test sample from each glucose concentration measured.
# (§5) Next, each of the liberated glucose concentration was input in the following equation to obtain decomposition inhibition ratio for maltase and sucrose. In the present tests, the substrates and the inhibitors were decomposed by enzymes present in the small-intestinal enzyme liquid. However, the enzymes decomposing the substrates are different from the enzymes decomposing the inhibitors. The decomposition inhibition ratio was determined as a measure for the inhibitory effect. When the inhibitor was added, the glucose concentration was lower than that seen when the substrate alone was reacted. A higher decomposition inhibition ratio means a stronger inhibitory effect.
# (§6) Decomposition inhibition ratio,%={(A+B)−(AB)}+(A+B)×100 [Equation 1]
# (§7) wherein (A+B) indicates a sum of a liberated glucose concentration in the control solution containing the test sample alone after the reaction (A) and a liberated glucose concentration in the control solution containing the substrate alone after the reaction (B); and (AB) indicates a liberated glucose concentration in the test solution containing the test sample (A) and the substrate (B), after the reaction.
# The procedures in Example 1 were repeated with the exception that the test solutions contained 5% of sucrose and 0.5%, 1.0%, 3.0% or 5.0% of palatinose to examine intensity of the sucrose activity inhibition. A control solution contained 5% of sucrose in 0.1 M phosphate buffer (pH 6.8).
# The procedures in Example 1 were repeated with the exception that palatinit and palatinose were used as test samples and sucrose was used as a substrate. The test samples and the substrate were dissolved in 0.1 M phosphate buffer (pH 6.8) to attain the concentration shown in Table 3 to thereby prepare two test solutions. Besides, each one of the test samples or the substrate was dissolved in 0.1 M phosphate buffer (pH 6.8) to attain the concentration shown in Table 3 to thereby prepare control solutions. Each 5 ml of the aforementioned test solutions or the control solutions was subjected to the enzymatic reaction according to the same procedures as in Example 1. The glucose concentration and the fructose concentration were measured. […]
# glucoamylase = experiment: Glucoamylase activity inhibition with rat small-intestinal enzyme liquid, substrate soluble starch; type: biochemical; details: 5% soluble starch + 5% test sample
# Experimental: as §2, §3, §4, §5, §6, §7
# The procedures in Example 1 were repeated with the exception that palatinose and palatinit were used as a test sample and soluble starch was used as a substrate. The test samples and the substrate were dissolved in 0.1 M phosphate buffer (pH 6.8) to attain the concentration shown in Table 6 to thereby prepare two test solutions. Besides, each of the test samples or the substrate was dissolved in 0.1 M phosphate buffer (pH 6.8) to attain the concentration shown in Table 6 to thereby prepare control solutions. Each 5 ml of the aforementioned test solutions and the control solutions was subjected to the enzymatic reaction according to the same procedures as in Example 1 and the liberated glucose concentration and the decomposition inhibition ratio were measured.
# The procedures in Example 1 were repeated with the exception that trehalulose was used as a test sample and soluble starch was used as a substrate. The test sample and the substrate were dissolved in 0.1 M phosphate buffer (pH 6.8) to attain the concentration shown in Table 9 to thereby prepare a test solution. Besides, the test sample or the substrate was dissolved in 0.1 M phosphate buffer (pH 6.8) to attain the concentration shown in Table 9 to thereby prepare control solutions. Each 5 ml of the aforementioned test solution and the control solutions was subjected to the enzymatic reaction according to the same procedures as in Example 1 and the liberated glucose concentration and the decomposition inhibition ratio were measured.
# The procedures in Example 1 were repeated with the exception that trehalose was used as a test sample and soluble starch was used as a substrate. […]
# [1] = test system: small-intestinal enzyme liquid; experiment: Decomposition of a saccharide alone (control solution) by small-intestinal enzyme liquid; type: biochemical, rat; details: 5% saccharide alone
# Experimental: as §1, §2, §3, §4
# The fructose concentration was measured using the F-kit Fructose (ex Roche). The liberated fructose concentration, g/l, was obtained by subtracting the blank value (0.1 M phosphate buffer alone) from the resultant fructose concentration.
# The procedures in Example 1 were repeated with the exception that palatinit, palatinose or isomaltose was used as a test sample and lactose was used as a substrate. The test samples and the substrate were dissolved in 0.1 M phosphate buffer (pH 6.8) to attain the concentration shown in Table 5 to thereby prepare three test solutions. Besides, each of the test samples or the substrate was dissolved in 0.1 M phosphate buffer (pH 6.8) to attain the concentration shown in Table 5 to thereby prepare control solutions. Each 5 ml of the aforementioned test solutions and the control solutions was subjected to the enzymatic reaction according to the same procedures as in Example 1. The glucose concentration, the fructose concentration and the galactose concentration were measured. The galactose concentration was measured using F-kit Galactose (ex Roche). The liberated galactose concentration, g/l, was calculated by subtracting the blank value (0.1 M phosphate buffer alone) from the measured galactose concentration.
# [2] = molecular target: (Homo sapiens, UniProt P14410); details: 4.3-56 mM sucrose as substrate, 14 mM palatinose as inhibitor; cited from earlier work
# maltase = details: maltose as substrate; Non-Patent Publication 4; cited from earlier work
# [3] = 5% sucrose + 5% test sample, Example 3 / Test Example 2
# T1 sequence (P23739 whole entry): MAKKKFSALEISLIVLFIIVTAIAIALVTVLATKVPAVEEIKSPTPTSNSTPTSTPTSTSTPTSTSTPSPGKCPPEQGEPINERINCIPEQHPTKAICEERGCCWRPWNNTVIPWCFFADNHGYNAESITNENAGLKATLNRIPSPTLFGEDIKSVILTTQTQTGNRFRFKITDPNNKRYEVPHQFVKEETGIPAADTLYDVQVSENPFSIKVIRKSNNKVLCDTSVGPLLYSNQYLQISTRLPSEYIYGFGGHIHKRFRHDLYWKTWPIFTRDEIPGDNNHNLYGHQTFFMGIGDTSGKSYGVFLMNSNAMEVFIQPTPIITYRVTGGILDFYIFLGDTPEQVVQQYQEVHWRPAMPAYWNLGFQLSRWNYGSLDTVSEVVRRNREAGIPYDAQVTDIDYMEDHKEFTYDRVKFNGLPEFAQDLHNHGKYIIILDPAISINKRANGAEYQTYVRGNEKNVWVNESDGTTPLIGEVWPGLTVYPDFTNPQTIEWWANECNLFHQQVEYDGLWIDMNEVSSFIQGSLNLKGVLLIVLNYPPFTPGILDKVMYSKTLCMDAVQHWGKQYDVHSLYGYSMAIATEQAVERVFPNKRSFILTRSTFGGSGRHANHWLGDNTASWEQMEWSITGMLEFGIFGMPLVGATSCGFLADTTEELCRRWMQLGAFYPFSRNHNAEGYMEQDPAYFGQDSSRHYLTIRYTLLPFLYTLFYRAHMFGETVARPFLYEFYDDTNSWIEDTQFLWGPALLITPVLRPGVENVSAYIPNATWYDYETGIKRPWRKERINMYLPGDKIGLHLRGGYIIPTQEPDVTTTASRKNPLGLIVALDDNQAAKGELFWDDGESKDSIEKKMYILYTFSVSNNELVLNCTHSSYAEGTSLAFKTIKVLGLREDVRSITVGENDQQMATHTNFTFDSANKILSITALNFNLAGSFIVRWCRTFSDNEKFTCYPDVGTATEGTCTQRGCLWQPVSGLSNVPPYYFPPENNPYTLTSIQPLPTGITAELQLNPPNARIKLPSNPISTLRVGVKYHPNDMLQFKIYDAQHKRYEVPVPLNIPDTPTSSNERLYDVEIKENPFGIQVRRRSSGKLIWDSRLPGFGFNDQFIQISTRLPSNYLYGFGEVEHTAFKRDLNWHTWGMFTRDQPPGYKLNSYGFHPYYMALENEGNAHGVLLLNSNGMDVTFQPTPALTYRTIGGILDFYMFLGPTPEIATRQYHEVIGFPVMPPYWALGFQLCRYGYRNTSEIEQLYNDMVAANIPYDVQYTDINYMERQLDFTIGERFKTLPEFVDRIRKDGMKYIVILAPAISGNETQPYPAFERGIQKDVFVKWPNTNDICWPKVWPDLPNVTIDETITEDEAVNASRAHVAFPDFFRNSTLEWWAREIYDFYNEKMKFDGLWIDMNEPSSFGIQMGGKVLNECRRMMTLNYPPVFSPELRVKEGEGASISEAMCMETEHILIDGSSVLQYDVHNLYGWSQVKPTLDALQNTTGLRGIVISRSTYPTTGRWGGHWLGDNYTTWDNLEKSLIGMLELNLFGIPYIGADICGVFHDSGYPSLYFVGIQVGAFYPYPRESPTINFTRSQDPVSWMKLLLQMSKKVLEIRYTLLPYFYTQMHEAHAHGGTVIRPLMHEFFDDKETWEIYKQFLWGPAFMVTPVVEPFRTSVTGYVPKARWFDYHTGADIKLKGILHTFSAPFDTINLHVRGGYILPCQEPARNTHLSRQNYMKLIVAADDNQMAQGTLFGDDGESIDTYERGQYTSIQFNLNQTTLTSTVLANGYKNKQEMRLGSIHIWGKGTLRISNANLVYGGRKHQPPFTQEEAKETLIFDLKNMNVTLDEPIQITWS
# (Homo sapiens, UniProt P14410), sequence (P14410 whole entry): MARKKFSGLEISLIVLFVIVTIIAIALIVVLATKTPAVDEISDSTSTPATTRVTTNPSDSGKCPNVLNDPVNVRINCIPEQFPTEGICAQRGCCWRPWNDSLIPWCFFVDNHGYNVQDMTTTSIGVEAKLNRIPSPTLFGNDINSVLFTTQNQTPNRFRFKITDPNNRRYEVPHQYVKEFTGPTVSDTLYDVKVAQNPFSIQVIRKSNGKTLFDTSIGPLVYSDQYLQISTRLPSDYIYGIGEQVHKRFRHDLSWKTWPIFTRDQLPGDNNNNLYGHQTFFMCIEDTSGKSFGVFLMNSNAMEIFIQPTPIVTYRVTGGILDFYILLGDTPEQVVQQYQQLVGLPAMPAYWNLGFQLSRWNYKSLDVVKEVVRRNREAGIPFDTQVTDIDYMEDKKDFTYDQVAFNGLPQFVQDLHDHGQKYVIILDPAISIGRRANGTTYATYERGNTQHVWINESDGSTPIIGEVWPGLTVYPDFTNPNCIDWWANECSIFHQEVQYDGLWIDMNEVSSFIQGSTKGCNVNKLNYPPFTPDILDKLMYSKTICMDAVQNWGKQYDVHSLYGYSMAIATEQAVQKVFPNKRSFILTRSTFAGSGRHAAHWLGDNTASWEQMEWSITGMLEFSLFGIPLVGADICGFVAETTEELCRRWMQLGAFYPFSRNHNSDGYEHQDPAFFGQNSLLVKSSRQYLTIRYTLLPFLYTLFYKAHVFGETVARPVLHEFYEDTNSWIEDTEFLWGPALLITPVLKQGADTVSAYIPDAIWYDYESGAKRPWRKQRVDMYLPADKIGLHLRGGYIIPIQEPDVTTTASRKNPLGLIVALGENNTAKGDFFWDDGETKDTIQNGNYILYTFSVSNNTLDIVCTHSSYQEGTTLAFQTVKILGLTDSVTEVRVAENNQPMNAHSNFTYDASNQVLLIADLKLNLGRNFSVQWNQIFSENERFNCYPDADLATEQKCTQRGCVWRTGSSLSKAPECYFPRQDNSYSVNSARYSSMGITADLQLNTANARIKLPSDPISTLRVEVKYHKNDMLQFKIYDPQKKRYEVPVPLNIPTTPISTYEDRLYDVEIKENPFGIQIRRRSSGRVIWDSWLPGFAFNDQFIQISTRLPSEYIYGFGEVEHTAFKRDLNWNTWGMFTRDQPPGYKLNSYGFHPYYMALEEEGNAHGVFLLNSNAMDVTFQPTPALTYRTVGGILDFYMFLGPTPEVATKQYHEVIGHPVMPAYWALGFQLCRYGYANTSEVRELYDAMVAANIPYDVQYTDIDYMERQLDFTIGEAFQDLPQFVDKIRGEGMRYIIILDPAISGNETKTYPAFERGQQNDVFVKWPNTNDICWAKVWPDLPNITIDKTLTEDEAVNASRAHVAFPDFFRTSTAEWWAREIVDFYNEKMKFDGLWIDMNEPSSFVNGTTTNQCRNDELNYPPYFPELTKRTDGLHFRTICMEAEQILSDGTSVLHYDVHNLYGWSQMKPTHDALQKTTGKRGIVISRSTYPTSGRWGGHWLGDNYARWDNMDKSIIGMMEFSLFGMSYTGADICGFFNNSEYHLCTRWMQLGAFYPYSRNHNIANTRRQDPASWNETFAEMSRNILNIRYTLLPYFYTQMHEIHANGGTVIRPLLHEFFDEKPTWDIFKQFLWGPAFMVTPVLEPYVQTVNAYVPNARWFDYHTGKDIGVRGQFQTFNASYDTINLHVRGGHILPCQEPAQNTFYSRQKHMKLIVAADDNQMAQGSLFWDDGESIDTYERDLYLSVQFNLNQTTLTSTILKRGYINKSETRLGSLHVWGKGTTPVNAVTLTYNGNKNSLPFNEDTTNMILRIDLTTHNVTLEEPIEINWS
smiles,measurement,setting,value
"OC[C@H]1O[C@H](OC[C@H]2OC(O)(CO)[C@@H](O)[C@@H]2O)[C@H](O)[C@@H](O)[C@@H]1O (some centres unmarked) [palatinose, isomaltulose]","Intensity of the sucrase activity inhibition, dependence on concentration (FIG. 1)","sucrase; 5% sucrose + 0.5%, 1.0%, 3.0% or 5.0% palatinose",inhibits sucrose activity depending upon its concentration
same,Sucrase activity inhibitory effect (in words),sucrase; 5% sucrose + 5% test sample,a sucrose activity inhibitory effect; also recorded: have a sucrose inhibitory effect
same,Liberated glucose concentration,"sucrase; 5% sucrose + 5% test sample, 37° C., 60 min, Example 1 / Test Example 1",0.803 ± 0.055 g/L
same,"Decomposition inhibition ratio, %, against sucrase","sucrase; 5% sucrose + 5% test sample, Equation 1, Example 1 / Test Example 1",24%
same,"Decomposition inhibition ratio, %, against sucrase",sucrase; [3],29%
same,Liberated fructose concentration,sucrase; [3],1.05 g/L
same,Liberated glucose concentration,sucrase; [3],0.79 g/L
same,Glucoamylase activity inhibitory effect (in words),glucoamylase,have the glucoamylase activity inhibitory effect
same,"Decomposition inhibition ratio, %, against glucoamylase",glucoamylase; Example 4,26%
same,Liberated glucose concentration,glucoamylase; Example 4,3.611 g/L
same,Liberated glucose concentration,"[1]; 37° C., 60 min, pH 6.8, Example 1 / Test Example 1",0.095 ± 0.010 g/L
same,Liberated fructose concentration,"[1]; Example 3 / Test Examples 2, 3",0.21 g/L
same,Liberated glucose concentration,"[1]; Example 3 / Test Examples 2, 3",0.11 g/L
same,Liberated glucose concentration,[1]; Example 4,0.205 g/L
same,Liberated galactose concentration,[1]; Test Example 3,0.00 g/L
same,Inhibitory effect on the sucrase activity (reported),[2],no inhibitory effect
same,Maltase activity inhibitory effect (reported),maltase,have a maltase activity inhibitory effect
